The compounds below were run against T1, human MR (Homo sapiens, UniProt P08235) (assay: Mineralocorticoid Receptor Binding Assay (Method 1)). Settings: [3H]-aldosterone, racemic mixture unless otherwise indicated.
T1 construct: The full length human MR gene is cloned from a human kidney or human brain cDNA library; made in house; host or cells: SF9 insect cells (baculovirus)
T1 sequence (P08235 1-984): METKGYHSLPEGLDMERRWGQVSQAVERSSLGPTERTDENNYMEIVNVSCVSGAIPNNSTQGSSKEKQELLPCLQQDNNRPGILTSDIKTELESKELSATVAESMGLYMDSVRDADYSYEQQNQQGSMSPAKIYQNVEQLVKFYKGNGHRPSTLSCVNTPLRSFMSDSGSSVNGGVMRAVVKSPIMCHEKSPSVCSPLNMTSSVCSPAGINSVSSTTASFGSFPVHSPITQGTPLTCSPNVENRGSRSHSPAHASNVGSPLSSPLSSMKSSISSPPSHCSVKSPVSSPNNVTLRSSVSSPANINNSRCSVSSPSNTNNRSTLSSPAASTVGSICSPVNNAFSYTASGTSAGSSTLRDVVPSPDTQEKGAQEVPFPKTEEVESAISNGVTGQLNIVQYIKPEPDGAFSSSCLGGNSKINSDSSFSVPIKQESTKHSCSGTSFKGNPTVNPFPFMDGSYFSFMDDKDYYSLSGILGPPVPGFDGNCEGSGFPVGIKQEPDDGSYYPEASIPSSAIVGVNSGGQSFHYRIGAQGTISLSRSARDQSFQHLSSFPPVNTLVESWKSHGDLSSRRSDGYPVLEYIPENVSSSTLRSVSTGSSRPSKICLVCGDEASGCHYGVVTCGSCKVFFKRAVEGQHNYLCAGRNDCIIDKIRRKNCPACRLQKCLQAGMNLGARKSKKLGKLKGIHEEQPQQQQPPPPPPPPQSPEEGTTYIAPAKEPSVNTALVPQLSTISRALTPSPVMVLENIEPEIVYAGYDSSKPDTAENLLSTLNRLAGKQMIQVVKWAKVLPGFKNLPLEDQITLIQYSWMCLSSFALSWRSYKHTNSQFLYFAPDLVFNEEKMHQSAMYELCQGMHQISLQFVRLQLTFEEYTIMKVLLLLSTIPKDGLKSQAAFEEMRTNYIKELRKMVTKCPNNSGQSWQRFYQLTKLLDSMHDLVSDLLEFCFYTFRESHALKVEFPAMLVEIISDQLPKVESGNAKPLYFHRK
Experimental: The full length human MR gene is cloned from a human kidney or human brain cDNA library. Briefly, using synthetic oligonucleotide primers (Eli Lilly and Company, Indianapolis) directed to nucleotides 20-54 and 3700-3666 of the human MR, polymerase chain reaction (PCR) is performed under standard conditions using a human cDNA library. The PCR reaction is performed in a final volume of 50 μl containing about 1 μl of a 50× stock solution of polymerase; about 1 μl of a 50× stock solution of dNTP; about 5 μl of an appropriate PCR buffer; about 1 μl of each primer; about 5 μl of a H. kidney or H. brain cDNA library; and about 36 μl of water. The reaction is allowed to denature for about 30 seconds at 95 degrees Celsius, anneal for about 30 seconds at 55 degrees Celsius, and extend for about 5 minutes at 72 degrees Celsius, the sequence being repeated for a total of about 35 cycles. The desired PCR product (3.68 Kb) is confirmed by gel electrophoresis and subsequently cut from the gel and stored at about −20 degrees Celsius until extraction. To extract the cDNA product from the agarose gel, the QIAEX II Gel Extraction protocol (QIAGEN, Inc.) is employed according to the manufacturer's instructions. Following extraction, the MR cDNA is cloned into an appropriate cloning vector (Zero Blunt TOPO PCR Cloning Kit (Invitrogen, Inc.) and a pAcHLT-baculovirus transfer vector (B.D./Pharminogen), then expressed in SF9 insect cells, essentially according to manufacturer's instructions. Sf9 cells are grown at a scale where gram quantity cell pellets are obtained for subsequent use in the MR binding assay. Harvested cell pellets are lysed by repeated freeze-thaw cycles (about 4) in a suitable lysis buffer then centrifuged at about 1×10^3 G (with the supernatant being saved for future assays).
MR binding assays are performed in a final total volume of about 250 μl containing about 20-25 μg of protein and 0.5 nM of [^3H]-aldosterone plus varying concentrations of test compound or vehicle. The assay binding buffer consists of 30 mM sodium molybdate, 30 mM of TRIS-HCl, 5 mM sodium phosphate, 5 mM sodium pyrophosphate, and about 10% glycerol, pH=7.5.
Briefly, assays are prepared at RT in 96-well Falcon 3072 plates, each well containing 210 μl of binding buffer, 10 μl of [^3H]-aldosterone, 10 μl of test compound/vehicle, and 20 μl of the resuspended receptor protein extract. Incubations are carried out at 4 degrees Celsius with shaking for about 16 hours. 200 μl aliquots of each incubation are filtered onto Millipore HA 0.45 micron 96-well filter plates, pre-moistened with cold 30 mM TRIS-HCl. The filter plates are suctioned dry with vacuum and immediately washed 3× with cold 30 mM TRIS-HCl. The plates are then punched out and the amount of receptor-ligand complex is determined by liquid scintillation counting using 4 ml of Ready Protein Plus™ liquid scintillation cocktail.
IC50 values (defined as the concentration of test compound required to decrease [^3H]-aldosterone binding by 50%) are then determined. Ki values for each respective test compound can then be calculated by application of the Cheng-Prusoff equation as described in Cheng et al., Relationship Between The Inhibition Constant (Ki) and The Concentration of Inhibitor Which Causes 50% Inhibition (IC50) of an Enzymatic Reaction, Biochem. Pharmacol., 22: 3099-31088; (1973).

Ki, ≤ 500 nM:
CCC1(c2c[nH]c3c(NS(C)(=O)=O)cccc23)CCc2cc(F)ccc21 (racemic) [Example 1, N-[3-(1-ethyl-5-fluoro-indan-1-yl)-1H-indol-7-yl]-methanesulfonamide]
CC1(c2c[nH]c3c(NS(C)(=O)=O)cccc23)CCc2cc(F)ccc21 (racemic) [Example 21, N-[3-(5-Fluoro-1-methyl-indan-1-yl)-1H-indol-7-yl]-methanesulfonamide]
CC1(c2c[nH]c3c(NS(C)(=O)=O)cccc23)CCc2cc(F)cc(F)c21 (racemic) [Example 22, N-[3-(5,7-Difluoro-1-methyl-indan-1-yl)-1H-indol-7-yl]-methanesulfonamide]
CCC1(c2c[nH]c3c(NS(C)(=O)=O)cccc23)CCc2cc(F)cc(F)c21 (racemic) [Example 23, N-[3-(1-Ethyl-5,7-difluoro-indan-1-yl)-1H-indol-7-yl]-methanesulfonamide]
CC1(c2c[nH]c3c(NS(C)(=O)=O)cccc23)CCCc2cc(F)ccc21 (racemic) [Example 28, N-[3-(6-Fluoro-1-methyl-1,2,3,4-tetrahydro-naphthalen-1-yl)-1H-indol-7-yl]-methanesulfonamide]
CCC1(c2c[nH]c3c(NS(C)(=O)=O)cccc23)CCCc2cc(F)ccc21 (racemic) [Example 29, N-[3-(1-Ethyl-6-fluoro-1,2,3,4-tetrahydro-naphthalen-1-yl)-1H-indol-7-yl]-methanesulfonamide]
CCC1(c2c[nH]c3c(NS(C)(=O)=O)cccc23)CCCc2cc(F)cc(F)c21 (racemic) [Example 31, N-[3-(1-Ethyl-6,8-difluoro-1,2,3,4-tetrahydro-naphthalen-1-yl)-1H-indol-7-yl]-methanesulfonamide]
CC1(c2c[nH]c3c(NS(C)(=O)=O)cccc23)CCOc2cc(F)ccc21 (racemic) [Example 34, N-[3-(7-Fluoro-4-methyl-chroman-4-yl)-1H-indol-7-yl]-methanesulfonamide]
CCC1(c2c[nH]c3c(NS(C)(=O)=O)cccc23)CCOc2cc(F)ccc21 (racemic) [Example 35, N-[3-(4-Ethyl-7-fluoro-chroman-4-yl)-1H-indol-7-yl]-methanesulfonamide]
CCC1(c2c[nH]c3c(NS(C)(=O)=O)cccc23)CCOc2cc(F)cc(F)c21 (racemic) [Example 36, N-[3-(4-Ethyl-5,7-difluoro-chroman-4-yl)-1H-indol-7-yl]-methanesulfonamide]
CS(=O)(=O)Nc1cccc2c(C3(C4CC4)CCc4cc(F)ccc43)c[nH]c12 (racemic) [Example 39, N-[3-(1-Cyclopropyl-5-fluoro-indan-1-yl)-1H-indol-7-yl]-methanesulfonamide]
CS(=O)(=O)Nc1cccc2c(C3(CCCO)CCc4cc(F)ccc43)c[nH]c12 (racemic) [Example 40, N-{3-[5-Fluoro-1-(3-hydroxy-propyl)-indan-1-yl]-1H-indol-7-yl}-methanesulfonamide]
CCC1(c2c[nH]c3c(NS(C)(=O)=O)cccc23)CCc2cc(F)ccc21 (single isomer, unassigned) [Example 1A, N-[3-(1-ethyl-5-fluoro-indan-1-yl)-1H-indol-7-yl]-methanesulfonamide]
CC1(c2c[nH]c3c(NS(C)(=O)=O)cccc23)CCc2cc(F)ccc21 (single isomer, unassigned) [Example 21A, N-[3-(5-Fluoro-1-methyl-indan-1-yl)-1H-indol-7-yl]-methanesulfonamide]
CC1(c2c[nH]c3c(NS(C)(=O)=O)cccc23)CCc2cc(F)ccc21 (single isomer, unassigned) [Example 21B, N-[3-(5-Fluoro-1-methyl-indan-1-yl)-1H-indol-7-yl]-methanesulfonamide]
CC1(c2c[nH]c3c(NS(C)(=O)=O)cccc23)CCc2cc(F)cc(F)c21 (single isomer, unassigned) [Example 22A, N-[3-(5,7-Difluoro-1-methyl-indan-1-yl)-1H-indol-7-yl]-methanesulfonamide]
CC1(c2c[nH]c3c(NS(C)(=O)=O)cccc23)CCc2cc(F)cc(F)c21 (single isomer, unassigned) [Example 22B, N-[3-(5,7-Difluoro-1-methyl-indan-1-yl)-1H-indol-7-yl]-methanesulfonamide]
CCC1(c2c[nH]c3c(NS(C)(=O)=O)cccc23)CCc2cc(F)cc(F)c21 (single isomer, unassigned) [Example 23A, N-[3-(1-Ethyl-5,7-difluoro-indan-1-yl)-1H-indol-7-yl]-methanesulfonamide]
CCC1(c2c[nH]c3c(NS(C)(=O)=O)cccc23)CCc2cc(F)cc(F)c21 (single isomer, unassigned) [Example 23B, N-[3-(1-Ethyl-5,7-difluoro-indan-1-yl)-1H-indol-7-yl]-methanesulfonamide]
CC1(c2c[nH]c3c(NS(C)(=O)=O)cccc23)CCCc2cc(F)ccc21 (single isomer, unassigned) [Example 28A, N-[3-(6-Fluoro-1-methyl-1,2,3,4-tetrahydro-naphthalen-1-yl)-1H-indol-7-yl]-methanesulfonamide]
CC1(c2c[nH]c3c(NS(C)(=O)=O)cccc23)CCCc2cc(F)ccc21 (single isomer, unassigned) [Example 28B, N-[3-(6-Fluoro-1-methyl-1,2,3,4-tetrahydro-naphthalen-1-yl)-1H-indol-7-yl]-methanesulfonamide]
CCC1(c2c[nH]c3c(NS(C)(=O)=O)cccc23)CCCc2cc(F)ccc21 (single isomer, unassigned) [Example 29A, N-[3-(1-Ethyl-6-fluoro-1,2,3,4-tetrahydro-naphthalen-1-yl)-1H-indol-7-yl]-methanesulfonamide]
CCC1(c2c[nH]c3c(NS(C)(=O)=O)cccc23)CCCc2cc(F)ccc21 (single isomer, unassigned) [Example 29B, N-[3-(1-Ethyl-6-fluoro-1,2,3,4-tetrahydro-naphthalen-1-yl)-1H-indol-7-yl]-methanesulfonamide]
CC1(c2c[nH]c3c(NS(C)(=O)=O)cccc23)CCOc2cc(F)ccc21 (single isomer, unassigned) [Example 34A, N-[3-(7-Fluoro-4-methyl-chroman-4-yl)-1H-indol-7-yl]-methanesulfonamide]
